Molecules are shown by their SMILES. Where only a bound is given, the exact number is not on record here.

In the test the target is T1, KCNT1 (KNa1.1, Slack) (Homo sapiens, UniProt Q5JUK3).
T1 construct: expressed in transfected cells; host or cells: HEK-TREX (tetracycline-inducible HEK cell line)
T1 sequence (Q5JUK3 1-1230): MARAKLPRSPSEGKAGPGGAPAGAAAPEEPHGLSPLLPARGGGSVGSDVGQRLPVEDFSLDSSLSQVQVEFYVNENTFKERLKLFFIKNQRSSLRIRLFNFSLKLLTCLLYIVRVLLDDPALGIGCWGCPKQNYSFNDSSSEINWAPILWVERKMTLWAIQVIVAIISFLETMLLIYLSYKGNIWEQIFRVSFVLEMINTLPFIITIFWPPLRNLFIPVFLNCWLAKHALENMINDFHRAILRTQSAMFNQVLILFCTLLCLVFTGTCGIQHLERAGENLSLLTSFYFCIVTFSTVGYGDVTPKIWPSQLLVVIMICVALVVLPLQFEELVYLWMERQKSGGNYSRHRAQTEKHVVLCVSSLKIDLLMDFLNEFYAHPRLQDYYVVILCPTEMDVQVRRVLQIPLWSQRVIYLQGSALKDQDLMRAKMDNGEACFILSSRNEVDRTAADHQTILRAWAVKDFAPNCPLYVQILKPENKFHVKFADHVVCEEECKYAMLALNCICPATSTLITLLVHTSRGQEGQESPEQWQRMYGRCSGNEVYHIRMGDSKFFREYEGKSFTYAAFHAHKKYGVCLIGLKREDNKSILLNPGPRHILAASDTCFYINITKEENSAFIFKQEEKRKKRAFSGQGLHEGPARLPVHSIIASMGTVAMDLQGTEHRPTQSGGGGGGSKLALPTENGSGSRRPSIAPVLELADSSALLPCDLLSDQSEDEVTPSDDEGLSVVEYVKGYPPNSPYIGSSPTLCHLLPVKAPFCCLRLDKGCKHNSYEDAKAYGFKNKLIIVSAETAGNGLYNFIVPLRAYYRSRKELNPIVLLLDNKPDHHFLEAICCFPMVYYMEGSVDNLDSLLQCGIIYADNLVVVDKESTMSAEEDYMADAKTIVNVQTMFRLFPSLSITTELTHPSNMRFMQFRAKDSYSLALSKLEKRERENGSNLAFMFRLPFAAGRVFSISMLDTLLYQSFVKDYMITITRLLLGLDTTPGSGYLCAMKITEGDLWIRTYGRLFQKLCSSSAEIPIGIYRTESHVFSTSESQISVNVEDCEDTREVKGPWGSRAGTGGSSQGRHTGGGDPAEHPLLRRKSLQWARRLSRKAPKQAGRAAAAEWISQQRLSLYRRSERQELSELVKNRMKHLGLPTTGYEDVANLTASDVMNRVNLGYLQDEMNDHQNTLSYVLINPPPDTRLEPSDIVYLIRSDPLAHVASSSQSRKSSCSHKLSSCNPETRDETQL
Put plainly: KCNT1 patch clamp assay (SyncroPatch 384PE automated patch clamp). Type of test: cell-based. Particulars: tetracycline inducible HEK-TREX cell line; perforated patch; step from −80 mV to 0 mV; room temperature; read-out: KCNT1-WT IC50. A digest of the protocol:
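Tetracycline-inducible HEK-TREX cells; perforated-patch (10 μM escin) population recordings at room temperature, holding −80 mV with 100 ms step to 0 mV.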
On the technique in general: The patch-clamp technique gives a direct electrical read-out from membranes.
For orientation: IC50 means the concentration that inhibits the measured activity by half. On to `C[C@H](NC(=O)c1cn(C)nc1C1CCC1)c1nc(-c2cccc(F)c2)no1` [Compound 155], for which the IC50 lay in the range of 1000 to 20000 nM.
The figure for `C[C@H](NC(=O)c1cc(C(F)(F)F)nn1C)c1nc(-c2ccnc(OCC3CC3)c2)no1` [Compound 214, (S)—N-(1-(3-(2-(cyclopropylmethoxy)pyridin-4-yl)-1,2,4-oxadiazol-5-yl)ethyl)-1-methyl-3-(trifluoromethyl)-1H-pyrazole-5-carboxamide] is no more than 1000 nM; for `Cn1nc(C2CC2)cc1C(=O)NC1(c2nc(-c3cccc(F)c3)no2)CCCCC1` [Compound 66] it is no more than 1000 nM.
The figure for `CC(C)Oc1cc(-c2noc([C@H](C)NC(=O)c3cc(C(F)(F)F)nn3C)n2)ccn1` [Compound 201, (S)—N-(1-(3-(2-isopropoxypyridin-4-yl)-1,2,4-oxadiazol-5-yl)ethyl)-1-methyl-3-(trifluoromethyl)-1H-pyrazole-5-carboxamide] is no more than 1000 nM; for `Cn1nc(C2CC2)cc1C(=O)NC(Cc1ccccc1)c1nc(-c2cccc(F)c2)no1` (centres unmarked) [Compound 49] it is 1000 to 20000 nM.
The figure for `CC[C@H](NC(=O)c1cc(C(F)(F)F)nn1C)c1nc(-c2ccnc(C)c2)no1` [Compound 199, (S)-1-methyl-N-(1-(3-(2-methylpyridin-4-yl)-1,2,4-oxadiazol-5-yl)propyl)-3-(trifluoromethyl)-1H-pyrazole-5-carboxamide] is no more than 1000 nM; for `Cn1nc(C(F)(F)F)cc1C(=O)NC(CC#N)c1nc(-c2cccc(F)c2)no1` (centres unmarked) [Compound 140] it is 1000 to 20000 nM.
`C[C@H](NC(=O)c1cc(C(F)(F)F)nn1C)c1nc(-c2ccnc(OCC(F)F)c2)no1` [Compound 211, (S)—N-(1-(3-(2-(2,2-difluoroethoxy)pyridin-4-yl)-1,2,4-oxadiazol-5-yl)ethyl)-1-methyl-3-(trifluoromethyl)-1H-pyrazole-5-carboxamide]: the IC50 is no more than 1000 nM.
In the case of `C[C@H](NC(=O)OC(C)(C)C)c1nc(-c2ccnc(C(F)F)c2)no1` [Compound 291, tert-butyl (S)-(1-(3-(2-(difluoromethyl)pyridin-4-yl)-1,2,4-oxadiazol-5-yl)ethyl)carbamate], the IC50 fell in the range of 1000 to 20000 nM.
The figure for `CC[C@H](NC(=O)c1ccnn1Cc1ccccc1)c1nc(-c2ccnc(C)c2)no1` [Compound 219, (S)-1-benzyl-N-(1-(3-(2-methylpyridin-4-yl)-1,2,4-oxadiazol-5-yl)propyl)-1H-pyrazole-5-carboxamide] is no more than 1000 nM; for `Cc1nn(C(C)C)cc1C(=O)NC(C)c1nc(-c2cccc(Cl)c2)no1` (centres unmarked) [Compound 96] it is no more than 1000 nM; for `CC(NC(=O)c1cc(C(F)(F)F)nn1C)c1nc(-c2cccc(S(N)(=O)=O)c2)no1` (centres unmarked) [Compound 180, 1-methyl-N-(1-(3-(3-sulfamoylphenyl)-1,2,4-oxadiazol-5-yl)ethyl)-3-(trifluoromethyl)-1H-pyrazole-5-carboxamide] it is no less than 20000 nM.
The figure for `CC(=O)Oc1cccc(-c2noc(C(C)NC(=O)c3cc(C(F)(F)F)nn3C)n2)c1` (racemic) [Compound 185, 3-(5-(1-(1-methyl-3-(trifluoromethyl)-1H-pyrazole-5-carboxamido)ethyl)-1,2,4-oxadiazol-3-yl)phenyl acetate] is 1000 to 20000 nM; for `C[C@H](NC(=O)c1cc(C(F)(F)F)nn1C)c1nc(-c2nccc(C(F)(F)F)n2)no1` [Compound 237, (S)-1-methyl-3-(trifluoromethyl)-N-(1-(3-(4-(trifluoromethyl)pyrimidin-2-yl)-1,2,4-oxadiazol-5-yl)ethyl)-1H-pyrazole-5-carboxamide] it is no less than 20000 nM.
The figure for `COCC(NC(=O)c1cc(C(F)(F)F)nn1C)c1nc(-c2cccc(C)c2)no1` (centres unmarked) [Compound 72] is no more than 1000 nM; for `C[C@H](NC(=O)c1cc(C(F)(F)F)nn1CCN1CCCC1)c1nc(-c2ccnc(C(F)(F)F)c2)no1` [Compound 257, (S)-1-(2-(pyrrolidin-1-yl)ethyl)-3-(trifluoromethyl)-N-(1-(3-(2-(trifluoromethyl)pyridin-4-yl)-1,2,4-oxadiazol-5-yl)ethyl)-1H-pyrazole-5-carboxamide] it is no more than 1000 nM; for `C[C@H](NC(=O)c1cc(C(F)(F)F)nn1C)c1nc(-c2ccnc(C3(C)CC3)c2)no1` [Compound 240, (S)-1-methyl-N-(1-(3-(2-(1-methylcyclopropyl)pyridin-4-yl)-1,2,4-oxadiazol-5-yl)ethyl)-3-(trifluoromethyl)-1H-pyrazole-5-carboxamide] it is no more than 1000 nM.
